Laboratory results: paper PMC12736120, “First-in-Human Phase I Clinical Trial of SLC-391, a Novel and Selective AXL Inhibitor, in Patients with Advanced Solid Tumours” (Pharmaceuticals, 2025)
Like-named read-outs stand apart in the source and are kept apart here.

Experiment: Plasma pharmacokinetics, QD and BID cohorts (non-compartmental)
Assay type: in vivo, human
Conditions: for Cmin, Mean / Cmin, Median / AUC / AUC(0-t) / Cmax / Tmax: plasma; for AR Factor (accumulation ratio), AUC0–12 / AR Factor (accumulation ratio), AUC0–last / AR Factor (accumulation ratio), Cmax: C1D21 vs C1D1; for AUC / AUC(0-t) / Cmax / Tmax: human, oral
Experimental: PK parameters were calculated by standard non-compartmental methods for SLC-391. Due to the long half-life of SLC-391 compared to the dosing interval, it was not possible to calculate a number of PK parameters, including plasma half-life and rate of elimination. Accumulation was assessed from the mean accumulation ratio factor (AR factor) calculated as the repeated dose (C1D21) mean value/single dose (C1D1) mean value for the PK parameters Cmax, AUC0–12, and AUC0–last for each dose group.
During QD dosing, blood samples for determination of SLC-391 plasma concentrations were collected predose and at 0.5, 1, 2, 3, 4, 6, 8, and 24 h after SLC-391 administration on cycle 1 day 1 (C1D1) and cycle 1 day 21 (C1D21). During BID dosing, blood samples were collected predose and at 1, 2, 3, 4, 6, 8, and 12 h after the first daily dose (before the second daily dose). Where possible, further samples were then collected at 13, 14, 22, and 24 h after the initial dose (predose C1D2). Blood samples were also collected on C1D21 (steady state) predose and at 1, 2, 3, 4, 6, 8, and 12 h after the first daily dose (before the second daily dose). Where possible, further samples were then collected at 13, 14, 22, and 24 h after the initial C1D21 dose (predose C2D1). An additional blood sample was also taken, where possible, at the end of treatment (EOT) visit.
After collection, blood samples were centrifuged, and plasma was separated and stored at −80 °C. Plasma concentrations of SLC-391 were measured by a validated analytical method involving liquid–liquid extraction followed by high-performance liquid chromatography (HPLC)–mass/mass spectroscopy assay using a Water Quattro Premier tandem quadrupole mass spectroscopy with Waters MassLynx data acquisition and processing software. Plasma analysis was carried out by Microconstants (San Diego, CA, USA) in compliance with the US FDA GLP regulations. The calibration range of the assay was from 0.100 to 100 ng/mL. Quality control samples prepared at 4 different analyte concentrations were analysed with each batch of samples against a separately prepared calibration standard. PK parameters were collected following single (day 1) and repeat dose (day 21) administration. PK parameters were summarised with appropriate descriptive statistics where possible (e.g., mean, geometric mean, median, maximum, minimum, and coefficient of variation). Descriptive PK parameters were determined by standard non-compartmental methods based on the concentration–time data of each subject. The nominal time was used for descriptive statistics calculations, and the actual sample collection times were used in PK analyses. PK analyses were performed using validated Phoenix WinNonlin Professional 8.3 (Certara, L.P., St. Louis, MO, USA).

SMILES: Nc1ncc(-c2cnn(C3CCNCC3)c2)cc1-c1nnc(CC2CC2)o1 [SLC-391, 3-(5-[cyclopropylmethyl]-1,3,4-oxadiazol-2-yl)-5-(1-[piperidin-4-yl]-1H-pyrazol-4-yl)-pyridin-2-amine]
- Cmin, Mean (25 mg, QD, C1D21): 10.3 ng/mL
- Cmin, Median (25 mg, QD, C1D21): 7.8 ng/mL
- Cmin, Mean (50 mg, QD, C1D21): 34.9 ng/mL
- Cmin, Median (50 mg, QD, C1D21): 34.9 ng/mL
- Cmin (75 mg BID, C1D21, mean, n=3, plasma): 147.5 ng/mL
- Cmin (75 mg BID, C1D21, median, n=3, plasma): 128.0 ng/mL
- AR Factor (accumulation ratio), AUC0–12 (75 mg BID): 3.2
- AR Factor (accumulation ratio), AUC0–last (75 mg BID): 3.2
- AR Factor (accumulation ratio), Cmax (75 mg BID): 2.4
- Cmin, Mean (100 mg, QD, C1D21): 151.8 ng/mL
- Cmin, Median (100 mg, QD, C1D21): 151.8 ng/mL
- Cmin (110 mg BID, C1D21, mean, n=3, plasma): 145.6 ng/mL
- Cmin (110 mg BID, C1D21, median, n=3, plasma): 90.2 ng/mL
- AR Factor (accumulation ratio), AUC0–12 (110 mg BID): 3.5
- AR Factor (accumulation ratio), AUC0–last (110 mg BID): 3.7
- AR Factor (accumulation ratio), Cmax (110 mg BID): 2.6
- Cmin, Mean (125 mg, QD, C1D21): 33.7 ng/mL
- Cmin, Median (125 mg, QD, C1D21): 42.0 ng/mL
- Cmin (150 mg BID, C1D21, mean, n=6, plasma): 243.5 ng/mL
- Cmin (150 mg BID, C1D21, median, n=6, plasma): 242.5 ng/mL
- AR Factor (accumulation ratio), AUC0–12 (150 mg BID): 4.4
- AR Factor (accumulation ratio), AUC0–last (150 mg BID): 3.9
- AR Factor (accumulation ratio), Cmax (150 mg BID): 2.2
- Cmin, Mean (150 mg, QD, C1D21): 102.8 ng/mL
- Cmin, Median (150 mg, QD, C1D21): 89.9 ng/mL
- Cmin (200 mg BID, C1D21, mean, n=2, plasma): 471.5 ng/mL
- Cmin (200 mg BID, C1D21, median, n=2, plasma): 471.5 ng/mL
- AR Factor (accumulation ratio), AUC0–12 (200 mg BID): 8.7
- AR Factor (accumulation ratio), AUC0–last (200 mg BID): 8.0
- AR Factor (accumulation ratio), Cmax (200 mg BID): 5.0
- AUC (25 mg, QD, C1D1, read-out: AUC0–12, Mean): 177 ng·h/mL
- AUC (25 mg, QD, C1D1, read-out: AUC0–12, Median): 211 ng·h/mL
- AUC(0-t) (25 mg, QD, C1D1, read-out: AUC0–last, Mean): 270 ng·h/mL
- AUC(0-t) (25 mg, QD, C1D1, read-out: AUC0–last, Median): 302 ng·h/mL
- Cmax (25 mg, QD, C1D1, read-out: Cmax, Mean): 32.5 ng/mL
- Cmax (25 mg, QD, C1D1, read-out: Cmax, Median): 39.6 ng/mL
- Tmax (25 mg, QD, C1D1, read-out: Tmax, Mean): 2 h
- Tmax (25 mg, QD, C1D1, read-out: Tmax, Median): 2 h
- AUC (25 mg, QD, C1D21, read-out: AUC0–12, Mean): 286 ng·h/mL
- AUC (25 mg, QD, C1D21, read-out: AUC0–12, Median): 232 ng·h/mL
- AUC(0-t) (25 mg, QD, C1D21, read-out: AUC0–last, Mean): 461 ng·h/mL
- AUC(0-t) (25 mg, QD, C1D21, read-out: AUC0–last, Median): 366 ng·h/mL
- Cmax (25 mg, QD, C1D21, read-out: Cmax, Mean): 41.9 ng/mL
- Cmax (25 mg, QD, C1D21, read-out: Cmax, Median): 41.2 ng/mL
- Tmax (25 mg, QD, C1D21, read-out: Tmax, Mean): 2.7 h
- Tmax (25 mg, QD, C1D21, read-out: Tmax, Median): 2.1 h
- AUC (50 mg, QD, C1D1, read-out: AUC0–12, Mean): 382 ng·h/mL
- AUC (50 mg, QD, C1D1, read-out: AUC0–12, Median): 413 ng·h/mL
- AUC(0-t) (50 mg, QD, C1D1, read-out: AUC0–last, Mean): 594 ng·h/mL
- AUC(0-t) (50 mg, QD, C1D1, read-out: AUC0–last, Median): 643 ng·h/mL
- Cmax (50 mg, QD, C1D1, read-out: Cmax, Mean): 72.9 ng/mL
- Cmax (50 mg, QD, C1D1, read-out: Cmax, Median): 65.8 ng/mL
- Tmax (50 mg, QD, C1D1, read-out: Tmax, Mean): 2 h
- Tmax (50 mg, QD, C1D1, read-out: Tmax, Median): 1 h
- AUC (50 mg, QD, C1D21, read-out: AUC0–12, Mean): 706 ng·h/mL
- AUC (50 mg, QD, C1D21, read-out: AUC0–12, Median): 706 ng·h/mL
- AUC(0-t) (50 mg, QD, C1D21, read-out: AUC0–last, Mean): 1210 ng·h/mL
- AUC(0-t) (50 mg, QD, C1D21, read-out: AUC0–last, Median): 1210 ng·h/mL
- Cmax (50 mg, QD, C1D21, read-out: Cmax, Mean): 99.2 ng/mL
- Cmax (50 mg, QD, C1D21, read-out: Cmax, Median): 99.2 ng/mL
- Tmax (50 mg, QD, C1D21, read-out: Tmax, Mean): 1.5 h
- Tmax (50 mg, QD, C1D21, read-out: Tmax, Median): 1.5 h
- AUC (75 mg, 75 mg BID, C1D1, mean, n=3, plasma, read-out: AUC0–12): 706 ng·h/mL
- AUC(0-t) (75 mg, 75 mg BID, C1D1, mean, n=3, plasma, read-out: AUC0–last): 1390 ng·h/mL
- Cmax (75 mg, 75 mg BID, C1D1, mean, n=3, plasma, read-out: Cmax): 114 ng/mL
- Tmax (75 mg, 75 mg BID, C1D1, mean, n=3, plasma, read-out: Tmax): 9.4 h
- AUC (75 mg, 75 mg BID, C1D1, median, n=3, plasma, read-out: AUC0–12): 541 ng·h/mL
- AUC(0-t) (75 mg, 75 mg BID, C1D1, median, n=3, plasma, read-out: AUC0–last): 1110 ng·h/mL
- Cmax (75 mg, 75 mg BID, C1D1, median, n=3, plasma, read-out: Cmax): 93.4 ng/mL
- Tmax (75 mg, 75 mg BID, C1D1, median, n=3, plasma, read-out: Tmax): 3 h
- AUC (75 mg, 75 mg BID, C1D21, mean, n=3, plasma, read-out: AUC0–12): 2290 ng·h/mL
- AUC(0-t) (75 mg, 75 mg BID, C1D21, mean, n=3, plasma, read-out: AUC0–last): 4420 ng·h/mL
- Cmax (75 mg, 75 mg BID, C1D21, mean, n=3, plasma, read-out: Cmax): 267 ng/mL
- Tmax (75 mg, 75 mg BID, C1D21, mean, n=3, plasma, read-out: Tmax): 3 h
- AUC (75 mg, 75 mg BID, C1D21, median, n=3, plasma, read-out: AUC0–12): 2290 ng·h/mL
- AUC(0-t) (75 mg, 75 mg BID, C1D21, median, n=3, plasma, read-out: AUC0–last): 4300 ng·h/mL
- Cmax (75 mg, 75 mg BID, C1D21, median, n=3, plasma, read-out: Cmax): 331 ng/mL
- Tmax (75 mg, 75 mg BID, C1D21, median, n=3, plasma, read-out: Tmax): 1.9 h
- AUC (100 mg, QD, C1D1, n 1, read-out: AUC0–12, Mean): 1350 ng·h/mL
- AUC (100 mg, QD, C1D1, n 1, read-out: AUC0–12, Median): 1350 ng·h/mL
- AUC(0-t) (100 mg, QD, C1D1, read-out: AUC0–last, Mean): 875 ng·h/mL
- AUC(0-t) (100 mg, QD, C1D1, read-out: AUC0–last, Median): 460 ng·h/mL
- Cmax (100 mg, QD, C1D1, read-out: Cmax, Mean): 141 ng/mL
- Cmax (100 mg, QD, C1D1, read-out: Cmax, Median): 112 ng/mL
- Tmax (100 mg, QD, C1D1, read-out: Tmax, Mean): 0.8 h
- Tmax (100 mg, QD, C1D1, read-out: Tmax, Median): 0.9 h
- AUC(0-t) (100 mg, QD, C1D21, read-out: AUC0–last, Mean): 1800 ng·h/mL
- AUC(0-t) (100 mg, QD, C1D21, read-out: AUC0–last, Median): 1800 ng·h/mL
- Cmax (100 mg, QD, C1D21, read-out: Cmax, Mean): 436 ng/mL
- Cmax (100 mg, QD, C1D21, read-out: Cmax, Median): 436 ng/mL
- Tmax (100 mg, QD, C1D21, read-out: Tmax, Mean): 1.9 h
- Tmax (100 mg, QD, C1D21, read-out: Tmax, Median): 1.9 h
- AUC (110 mg, 110 mg BID, C1D1, mean, n=3, plasma, read-out: AUC0–12): 639 ng·h/mL
- AUC(0-t) (110 mg, 110 mg BID, C1D1, mean, n=3, plasma, read-out: AUC0–last): 1170 ng·h/mL
- Cmax (110 mg, 110 mg BID, C1D1, mean, n=3, plasma, read-out: Cmax): 95.2 ng/mL
- Tmax (110 mg, 110 mg BID, C1D1, mean, n=3, plasma, read-out: Tmax): 3 h
- AUC (110 mg, 110 mg BID, C1D1, median, n=3, plasma, read-out: AUC0–12): 593 ng·h/mL
- AUC(0-t) (110 mg, 110 mg BID, C1D1, median, n=3, plasma, read-out: AUC0–last): 1130 ng·h/mL
